From patent US20060058329A1, “Pyrazole inhibitors of the transforming growth factor” (priority 2003, published 2006)

Tests used:
[1] = tested on: TGF-β signalling (PAI-1 promoter-luciferase in HepG2 cells); test: Cellular transcriptional assay (PAI-1 promoter luciferase reporter, TGF-β stimulated); settings: for IC50: Homo sapiens, HepG2, read-out: TGF-β cellular activity (IC50)
Method: Assay 1 (Cellular Transcriptional Assay)
The assay was performed in HepG2 cells stably transfected with the PAI-1 promoter (known to be a strong TGF-β responsive promoter) linked to a luciferase (firefly) reporter gene. The compounds were selected on their ability to inhibit luciferase activity in cells exposed to TGF-β. In addition, cells were transfected with a second luciferase (Renilla) gene which was not driven by a TGF-β responsive promoter and was used as a toxicity control.
96 well microplates were seeded, using a multidrop apparatus, with the stably transfected cell line at a concentration of 35000 cells per well in 200 μl of serum-containing medium. These plates were placed in a cell incubator.
18 to 24 hours later (Day 2), cell-incubation procedure was launched. Cells were incubated with TGF-β and a candidate compound at concentrations in the range 50 nM to 10 μM (final concentration of DMSO 1%). The final concentration of TGF-β (rhTGFβ-1) used in the test was 1 ng/mL. […] The final volume of the test reaction was 150 μl. Each well contained only one candidate compound and its effect on the PAI-1 promoter was monitored.
Columns 11 and 12 were employed as controls. Column 11 contained 8 wells in which the cells were incubated in the presence of TGF-β, without a candidate compound. Column 11 was used to determine the ‘reference TGF-β induced firefly luciferase value’ against which values measured in the test wells (to quantify inhibitory activity) were compared. In wells A12 to D12, cells were grown in medium without TGF-β. […]
12 to 18 hours later (day 3), the luciferase quantification procedure was launched. […] Following agitation (15 to 30 mins), luciferase activities of the plates were read in a dual-injector luminometer (BMG lumistar). For this purpose, 50 μl of luciferase assay reagent and 50 μL of ‘Stop & Glo’ buffer were injected sequentially to quantify the activities of both luciferases. […] For each of the compounds tested, a concentration response curve was constructed from which an IC50 value was determined graphically.

[2] = target: T1, recombinant GST-ALK5 (residues 198-503) (Homo sapiens, UniProt P36897); test: Alk5 fluorescence polarization assay; assay type: binding; settings: rhodamine green-labelled ligand 1 nM, ALK5 10 nM, read-out: ALK5 receptor modulator activity (IC50)
T1 construct: recombinant GST-ALK5 (residues 198-503)
T1 sequence (P36897 198-503): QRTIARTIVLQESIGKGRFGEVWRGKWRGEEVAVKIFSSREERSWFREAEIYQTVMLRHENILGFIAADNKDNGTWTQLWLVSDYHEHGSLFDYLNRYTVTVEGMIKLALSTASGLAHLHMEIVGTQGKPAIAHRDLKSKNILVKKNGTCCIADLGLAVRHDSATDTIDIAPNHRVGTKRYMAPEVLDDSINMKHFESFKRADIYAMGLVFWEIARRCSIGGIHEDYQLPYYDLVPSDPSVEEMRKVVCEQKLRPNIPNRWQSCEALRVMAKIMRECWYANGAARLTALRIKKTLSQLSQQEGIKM
Method: Assay 2 (Alk5 Fluorescence Polarization Assay)
Kinase inhibitor compounds conjugated to fluorophores, can be used as fluorescent ligands to monitor ATP competitive binding of other compounds to a given kinase. The increase in depolarization of plane polarized light, caused by release of the bound ligand into solution, is measured as a polarization/anisotropy value. This protocol details the use of a rhodamine green-labelled ligand for assays using recombinant GST-ALK5 (residues 198-503).
Assay buffer components: 62.5 mM Hepes pH 7.5 (Sigma H-4034), 1 mM DTT (Sigma D-0632), 12.5 mM MgCl2 (Sigma M-9272), 1.25 mM CHAPS (Sigma C-3023). […]
ALK5 was added to assay buffer containing the above components and 1 nM of the rhodamine green-labelled ligand so that the final ALK5 concentration was 10 nM based on active site titration of the enzyme. […] The plates were read immediately on a LJL Acquest fluorescence reader (Molecular Devices, serial number AQ1048) with excitation, emission, and dichroic filters of 485 nm, 530 nm, and 505 nm, respectively. The fluorescence polarization for each well was calculated by the Acquest reader and then imported into curve fitting software for construction of concentration response curves. The normalized response was determined relative to the high controls (1 μl DMSO in column 12, rows A-D) and the low controls (1 μl of control compound in column 12, rows E-H). […]

SMILES: O=C1C=CCC1 [CPO, Cyclopentenone, reference compound]
- firefly and renilla luciferase activities, relative to those obtained in column 11 (TGF-β only) ([1]; 500 μM CPO in the presence of TGF-β, toxicity control): around 50%

SMILES: Cc1cccc(-c2n[nH]cc2-c2ccnc(-c3ccc(OCc4cn(C)cn4)cc3)c2)n1 [Example 1, 2-{4-[(1-methyl-1H-imidazol-4-yl)methoxy]phenyl}-4-[3-(6-methylpyridin-2-yl)-1H-pyrazol-4-yl]pyridine]
- IC50 [2]: 5 nM
- IC50 [1]: 34 nM

SMILES: CCN1CCN(C(=O)c2ccc(-c3cc(-c4[nH]ncc4-c4cccc(C)n4)ccn3)cc2)CC1 [Example 19, 3-[2-(4-((1-ethyl-piperazin-4-yl)carbonyl)phenyl)pyridin-4-yl]-4-[6-methylpyridin-2-yl]-1H-pyrazole]
- melting point: 126 °C

SMILES: Cc1cccc(-c2cn[nH]c2-c2ccnc(-c3ccc(OCCN4CCCC4)cc3)c2)n1 [Example 22, 3-[2-(4-(2-(pyrolidin-1-yl)ethoxy)phenyl)pyridin-4-yl]-4-[6-methylpyridin-2-yl]-1H-pyrazole]
- IC50 [2]: 17 nM
- melting point: 96 °C
- IC50 [1]: 38 nM

SMILES: Cc1cccc(-c2cn[nH]c2-c2ccnc(-c3ccc(OCC(=O)N4CCOCC4)cc3)c2)n1 [Example 23, 3-[2-(4-((morpholin-4-yl)carbonylmethyloxy)phenyl)pyridin-4-yl]-4-[6-methylpyridin-2-yl]-1H-pyrazole]
- melting point: 170 °C
